# Data: patent US12351580B2, “NLRP3 modulators” (Innate Tumor Immunity, Inc., priority 2017, dated 2025)
# pEC50: −log10 of the molar value.
# Target: T1, hNLRP3 (Homo sapiens, UniProt Q96P20)
# T1 construct: THP-1 cells were purchased from the American Type Culture Collection; host or cells: THP-1 cells, PMA-differentiated
# Assay: Measurement of IL-1β production in PMA-differentiated THP-1 cells (hNLRP3 agonist; ELISA, alternative and hTRF procedures)
# Assay type: cell-based
# Experimental: Measurement of IL-1β production in PMA-differentiated THP-1 cells THP-1 cells were purchased from the American Type Culture Collection and sub-cultured according to instructions from the supplier. Prior to experiments, cells were cultured in RPMI 1640 containing 10% heat inactivated FBS, penicillin (100 units/ml) and streptomycin (100 μg/ml), and maintained in log phase prior to experimental setup. Prior to the experiment THP-1 were treated with PMA (Phorbol 12-myristate 13-acetate) ([…]) for 24 hours. The day of the experiment the media was removed and attaching cells were treated with trypsin for 2 minutes, cells were then collected, washed with PBS (phosphate buffer saline), spin down, resuspended in 2% heat inactivated FBS with RPMI at a concentration of 1×10^6 cells/ml, and 100 μl was plated in a 96 well plate. Compounds were dissolved in dimethyl sulfoxide (DMSO) and added to the culture medium to achieve desired concentration (e.g. 100, 30, 10, 3, 1, 0.3 or 0.1 μM). Cells were incubated with compounds for 4 hours. Cell free supernatant was collected and the production of […] was evaluated by ELISA. A vehicle only control was run concurrently with each experiment. Final DMSO concentration was 1%.
# Measurement of IL-1β Production in PMA-Differentiated THP-1 Cells (Alternative Procedure)
# THP-1 cells were purchased from the American Type Culture Collection and sub-cultured according to instructions from the supplier. Prior to experiments, cells were cultured in RPMI 1640 containing 10% heat inactivated FBS, penicillin (100 units/ml), streptomycin (100 μg/ml), HEPES (10 mM) and sodium pyruvate (1 mM) and maintained in log phase prior to experimental setup. Prior to the experiment, THP-1 cells were treated with PMA (Phorbol 12-myristate 13-acetate) (20 μg/ml) overnight. The day of the experiment, the media was removed and attached cells were treated with trypsin for 2 minutes, cells were then collected, washed with PBS (phosphate buffer saline), pelleted by centrifugation and resuspended in 2% heat inactivated FBS with RPMI at a concentration of 50,000 cells/well in a 384 well plate. Cell free supernatant was collected and the production of IL-1β was evaluated by ELISA. Compounds were dissolved in dimethyl sulfoxide (DMSO) and added to the culture medium to achieve desired concentration (e.g. 100, 30, 10, 3, 1, 0.3 or 0.1 μM). Cells were incubated with compounds for 2 hours. A vehicle only control was run concurrently with each experiment. Final DMSO concentration was 1%.
# Measurement of IL-1β Production—hTRF Protocol (Second Alternative Procedure)
# Serial dilutions of compounds in DMSO were added to low volume 384 well plates at 100 nl/well using an ECHO 550 acoustic dispenser (Labcyte) to achieve final starting concentration of 10 μM in assay.
# THP-1 cells in RPMI (Gibco, 11875) media with 10% FBS at a density of 1×10^6 cell/ml in a T175 flask were treated with a final concentration of phorbol 12-myristate 13-acetate (PMA) (Sigma, P1585) of 50 ng/ml overnight at 37° C. at 5% CO2 for differentiation. Cells were harvested the next day after rinsing well with dPBS using 0.5% trypsin. A cell solution was prepared of 1×10^6 cells/ml for 50,000 cells in 50 μl/well in RPMI media with 2% FBS. Cells were plated using a multichannel pipette onto the compound dilutions in Greiner, 384 well, black clear bottom tissue culture treated plates (781090). The plates were incubated in 37° C. incubator at 5% CO2 for 2 hours.
# After the 2 hour incubation, the cell plates were spun in the centrifuge for 5 minutes at 1200 rpm. Using the Felix (CyBio), 8 μl of the supernatant was transferred to 384 well, low volume, white proxy plates. (Perkin Elmer, 6008230). A human IL1beta hTRF kit was used to analyze the supernatant (CISBIO, 62HIL1BPEG). The kit instructions were followed for preparing the IL1Beta standard curve and then the antibodies from the kit were diluted 1:40 rather than 1:20 as kit instructed.
# T1 sequence (Q96P20 whole entry): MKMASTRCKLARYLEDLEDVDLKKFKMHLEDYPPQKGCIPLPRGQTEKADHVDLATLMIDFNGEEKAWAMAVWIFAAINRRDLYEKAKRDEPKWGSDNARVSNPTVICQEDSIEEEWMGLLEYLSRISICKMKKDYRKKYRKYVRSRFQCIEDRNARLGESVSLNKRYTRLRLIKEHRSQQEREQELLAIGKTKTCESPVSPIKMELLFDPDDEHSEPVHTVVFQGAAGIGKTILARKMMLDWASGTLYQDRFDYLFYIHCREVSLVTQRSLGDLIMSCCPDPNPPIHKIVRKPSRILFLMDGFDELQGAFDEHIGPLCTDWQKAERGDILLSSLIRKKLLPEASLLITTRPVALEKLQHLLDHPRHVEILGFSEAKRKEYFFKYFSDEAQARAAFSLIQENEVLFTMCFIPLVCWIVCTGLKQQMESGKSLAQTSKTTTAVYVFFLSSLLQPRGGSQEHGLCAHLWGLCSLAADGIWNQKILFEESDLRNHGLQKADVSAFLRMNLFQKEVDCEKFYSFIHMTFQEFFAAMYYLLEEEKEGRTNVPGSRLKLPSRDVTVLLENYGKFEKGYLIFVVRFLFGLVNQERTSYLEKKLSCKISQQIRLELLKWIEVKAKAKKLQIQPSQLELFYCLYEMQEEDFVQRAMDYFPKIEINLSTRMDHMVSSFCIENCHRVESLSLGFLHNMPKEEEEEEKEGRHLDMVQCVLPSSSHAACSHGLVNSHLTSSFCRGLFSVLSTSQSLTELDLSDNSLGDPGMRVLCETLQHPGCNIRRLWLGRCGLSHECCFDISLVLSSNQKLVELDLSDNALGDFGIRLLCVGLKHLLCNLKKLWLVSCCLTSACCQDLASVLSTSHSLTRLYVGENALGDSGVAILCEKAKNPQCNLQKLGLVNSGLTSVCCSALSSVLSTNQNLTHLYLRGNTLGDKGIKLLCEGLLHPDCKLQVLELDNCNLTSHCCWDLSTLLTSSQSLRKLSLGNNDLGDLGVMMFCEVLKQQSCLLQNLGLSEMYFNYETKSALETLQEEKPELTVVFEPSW
row,SMILES,pEC50
1,CCN(Cc1nc2c(N)nc3cc(Cl)ccc3c2n1CCCC(=O)NC)C(C)=O [Compound 217],4.02
2,CCN(Cc1nc2c(N)nc3cc(Cl)ccc3c2n1CCCC(=O)N1CCOCC1)C(C)=O [Compound 220],4.29
3,CCN(Cc1nc2c(N)nc3cc(Cl)ccc3c2n1CCCC(=O)N1CCN(C)CC1)C(C)=O [Compound 221],4.07
4,CCN(Cc1nc2c(N)nc3cc(Cl)ccc3c2n1CCCC(=O)N1CCCC1)C(C)=O [Compound 222],4.38
5,CCN(Cc1nc2c(N)nc3ccccc3c2n1CCC(=O)N1CCS(=O)(=O)CC1)C(=O)OC(C)(C)C [Compound 223],4.11
6,CCNCc1nc2c(N)nc3cc(Br)ccc3c2[nH]1 [Compound 225],4.96
7,CCN(Cc1nc2c(N)nc3cc(C(F)(F)F)ccc3c2n1CCCC(=O)NC)C(=O)OC(C)(C)C [Compound 226],4.07
8,CCNCc1nc2c(N)nc3cc(C(F)(F)F)ccc3c2n1CCCC(=O)OC [Compound 227],4.64
9,CCN(Cc1nc2c(N)nc3cc(C(F)(F)F)ccc3c2n1CCCC(=O)N1CCOCC1)C(=O)OC(C)(C)C [Compound 228],4.03
10,CCN(Cc1nc2c(N)nc3cc(C(F)(F)F)ccc3c2n1CCCC(=O)OC)C(C)=O [Compound 229],4.91
11,CC(=O)NCc1nc2c(N)nc3ccccc3c2[nH]1 [Compound 233],3.92
12,Nc1nc2ccccc2c2[nH]c(CN3CCCC3=O)nc12 [Compound 278],4.97
13,"N#Cc1cccc(-c2ccc3c(c2)nc(N)c2nc(CN4CCCC4=O)[nH]c23)c1 [Compound 288, 3-[4-amino-2-[(2-oxopyrrolidin-l-yl)methyl]-1H-imidazo[4,5-c]quinolin-7-yl]benzonitrile]",5.00
14,"Nc1nc2cc(C3CCOCC3)ccc2c2[nH]c(CN3CCCC3=O)nc12 [Compound 298, 1-[[4-amino-7-(oxan-4-yl)-1H-imidazo[4,5-c]quinolin-2-yl]methyl]pyrrolidin-2-one]",4.68
15,"CC(c1nc2c(N)nc3cc(Br)ccc3c2[nH]1)N1CCCC1=O (centres unmarked) [Compound 303, 1-[1-(4-amino-7-bromo-1H-imidazo[4,5-c]quinolin-2-yl)ethyl]pyrrolidin-2-one]",4.95

# The next molecules have a higher pEC50 than those just listed; values first:
row,pEC50,SMILES
1,5.12,"Nc1nc2cc(-c3cccnc3)ccc2c2[nH]c(CN3CCCC3=O)nc12 [Compound 279, 1-[(4-amino-7-pyridin-3-yl-1H-imidazo[4,5-c]quinolin-2-yl)methyl]pyrrolidin-2-one]"
2,5.18,COC(=O)CCCn1c(CN2CCCC2=O)nc2c(N)nc3cc(Cl)ccc3c21 [Compound 216]
3,5.19,"COc1ccccc1-c1ccc2c(c1)nc(N)c1nc(CN3CCCC3=O)[nH]c12 [Compound 283, 1-[[4-amino-7-(2-methoxyphenyl)-1H-imidazo[4,5-c]quinolin-2-yl]methyl]pyrrolidin-2-one]"
4,5.24,"Nc1nc2cc(-c3cccc(Cl)c3)ccc2c2[nH]c(CN3CCCC3=O)nc12 [Compound 285, 1-[[4-amino-7-(3-chlorophenyl)-1H-imidazo[4,5-c]quinolin-2-yl]methyl]pyrrolidin-2-one]"
5,5.29,"Cc1cnn(-c2ccc3c(c2)nc(N)c2nc(CN4CCCC4=O)[nH]c23)c1 [Compound 296, 1-[[4-amino-7-(4-methylpyrazol-1-yl)-1H-imidazo[4,5-c]quinolin-2-yl]methyl]pyrrolidin-2-one]"
6,5.32,"Cc1ccccc1-c1ccc2c(c1)nc(N)c1nc(CN3CCCC3=O)[nH]c12 [Compound 282, 1-[[4-amino-7-(2-methylphenyl)-1H-imidazo[4,5-c]quinolin-2-yl]methyl]pyrrolidin-2-one]"
7,5.34,"Nc1nc2cc(Br)ccc2c2[nH]c(CN3CCCC3=O)nc12 [Compound 294, 1-[(4-amino-7-bromo-1H-imidazo[4,5-c]quinolin-2-yl)methyl]pyrrolidin-2-one]"
8,5.35,COc1ccc(-c2ccc3c(c2)nc(N)c2nc(CN4CCCC4=O)[nH]c23)cc1 [Compound 230]
9,5.53,"Cc1ccn(-c2ccc3c(c2)nc(N)c2nc(CN4CCCC4=O)[nH]c23)n1 [Compound 301, 1-[[4-amino-7-(3-methylpyrazol-1-yl)-1H-imidazo[4,5-c]quinolin-2-yl]methyl]pyrrolidin-2-one]"
10,5.70,CCN(Cc1nc2c(N)nc3cc(Cl)ccc3c2n1CCCC(=O)OC)C(C)=O [Compound 219]
11,5.80,"Nc1nc2cc(-c3cccc(F)c3)ccc2c2[nH]c(CN3CCCC3=O)nc12 [Compound 289, 1-[[4-amino-7-(3-fluorophenyl)-1H-imidazo[4,5-c]quinolin-2-yl]methyl]pyrrolidin-2-one]"
12,5.85,"Nc1nc2cc(-c3ccccc3Cl)ccc2c2[nH]c(CN3CCCC3=O)nc12 [Compound 281, 1-[[4-amino-7-(2-chlorophenyl)-1H-imidazo[4,5-c]quinolin-2-yl]methyl]pyrrolidin-2-one]"
13,5.92,CCN(Cc1nc2c(N)nc3cc(Br)ccc3c2n1CCCC(=O)OC)C(C)=O [Compound 218]
14,5.92,"Nc1nc2cc(-n3cccn3)ccc2c2[nH]c(CN3CCCC3=O)nc12 [Compound 295, 1-[(4-amino-7-pyrazol-1-yl-1H-imidazo[4,5-c]quinolin-2-yl)methyl]pyrrolidin-2-one]"
15,5.97,"COc1cccc(-c2ccc3c(c2)nc(N)c2nc(CN4CCCC4=O)[nH]c23)c1 [Compound 287, 1-[[4-amino-7-(3-methoxyphenyl)-1H-imidazo[4,5-c]quinolin-2-yl]methyl]pyrrolidin-2-one]"
16,6.03,"Nc1nc2cc(C3CCCCC3)ccc2c2[nH]c(CN3CCCC3=O)nc12 [Compound 302, 1-[(4-amino-7-cyclohexyl-1H-imidazo[4,5-c]quinolin-2-yl)methyl]pyrrolidin-2-one]"
17,6.07,"Nc1nc2cc(-c3ccccc3F)ccc2c2[nH]c(CN3CCCC3=O)nc12 [Compound 284, 1-[[4-amino-7-(2-fluorophenyl)-1H-imidazo[4,5-c]quinolin-2-yl]methyl]pyrrolidin-2-one]"
18,6.21,"Cc1cccc(-c2ccc3c(c2)nc(N)c2nc(CN4CCCC4=O)[nH]c23)c1 [Compound 286, 1-[[4-amino-7-(3-methylphenyl)-1H-imidazo[4,5-c]quinolin-2-yl]methyl]pyrrolidin-2-one]"
19,6.66,"Nc1nc2cc(-c3ccccc3)ccc2c2[nH]c(CN3CCCC3=O)nc12 [Compound 280, 1-[(4-amino-7-phenyl-1H-imidazo[4,5-c]quinolin-2-yl)methyl]pyrrolidin-2-one]"
20,6.96,"Cc1ccc(-c2ccc3c(c2)nc(N)c2nc(CN4CCCC4=O)[nH]c23)cc1 [Compound 291, 1-[[4-amino-7-(4-methylphenyl)-1H-imidazo[4,5-c]quinolin-2-yl]methyl]pyrrolidin-2-one]"
